Values of other authors in US8168440B2, “Polymeric sulfated surfactants for capillary electrophoresis (CE) and CE-mass spectrometry (CE-MS)” (Georgia State University, priority 2006, dated 2012).

What was measured:
[1] = in vivo

CC(Oc1ccccc1Cl)C(=O)O (racemic) [(±)-2-PPA, 2-(2-chlorophenoxy)propionic acid]
pKa: 3.11±0.1

CN[C@@H](C)[C@@H](O)c1ccccc1 (racemic) [(±)-pseudoephedrine, pseudoephedrine]
Part of the dosage taken excreted in the urine [1]: about one-half
Serum half-life [1]: 5 to 8 h
